# Experiments:
# A-431 = assay: in vitro killing activity; assay type: cell-based, Human; settings: 120 time of incubation
# Experimental: (§1) Different concentrations of compounds CPT-1, CPT-2, CPT-3, CPT-4, Dxd (MedChem Express, Cat #: HY-13631D) and SN38 (MedChem Express, Cat #: HY-13704) were used to treat different human tumor cell lines, mice tumor cell lines, rat tumor cell lines or dog tumor cell lines cultured in a cell culture plate, respectively. And the killing activity was detected after 72 h-120 h incubation by IncuCyte (Sartorius AG, IncuCyte® S3) or MicroplateReader.
# BT474 = assay: in vitro killing activity; assay type: cell-based, Human; settings: 120 time of incubation
# Experimental: as §1
# BxPC-3 = assay: in vitro killing activity; assay type: cell-based, Human; settings: 120 time of incubation
# Experimental: as §1
# HCC1954 = assay: in vitro killing activity; assay type: cell-based, Human; settings: 120 time of incubation
# Experimental: as §1
# HS-746T = assay: in vitro killing activity; assay type: cell-based, Human; settings: 120 time of incubation
# Experimental: as §1
# Hela = assay: in vitro killing activity; assay type: cell-based, Human; settings: 120 h incubation
# Experimental: as §1
# HuH-7 = assay: in vitro killing activity; assay type: cell-based, Human; settings: 120 h incubation
# Experimental: as §1
# LOVO = assay: in vitro killing activity; assay type: cell-based, Human; settings: 120 h incubation
# Experimental: as §1
# NCI-H1781 = assay: in vitro killing activity; assay type: cell-based, Human; settings: 120 time of incubation
# Experimental: as §1
# NCI-H1975 = assay: in vitro killing activity; assay type: cell-based, Human; settings: 120 time of incubation
# Experimental: as §1
# NCI-H2030 = assay: in vitro killing activity; assay type: cell-based, Human; settings: 120 time of incubation
# Experimental: as §1
# NCI-H226 = assay: in vitro killing activity; assay type: cell-based, Human; settings: 120 h incubation
# Experimental: as §1
# NCI-H69 = assay: in vitro killing activity; assay type: cell-based, Human; settings: 120 time of incubation
# Experimental: as §1
# NCI-N87 = assay: in vitro killing activity; assay type: cell-based, Human; settings: 120 time of incubation
# Experimental: as §1
# OVKATE = assay: in vitro killing activity; assay type: cell-based, Human; settings: 120 time of incubation
# Experimental: as §1
# PC-3 = assay: in vitro killing activity; assay type: cell-based, Human; settings: 120 time of incubation
# Experimental: as §1
# Panc 02.03 = assay: in vitro killing activity; assay type: cell-based, Human; settings: 120 time of incubation
# Experimental: as §1
# SKOV-3 = assay: in vitro killing activity; assay type: cell-based, Human; settings: 120 time of incubation
# Experimental: as §1
# SW156 = assay: in vitro killing activity; assay type: cell-based, Human; settings: 120 time of incubation
# Experimental: as §1
# SW620 = assay: in vitro killing activity; assay type: cell-based, Human; settings: 120 h incubation
# Experimental: as §1
# U-2-OS = assay: in vitro killing activity; assay type: cell-based, Human; settings: 120 time of incubation
# Experimental: as §1
# CMT-U27 = assay: in vitro killing activity; assay type: cell-based, Dog; settings: 120 time of incubation
# Experimental: as §1
# D17 = assay: in vitro killing activity; assay type: cell-based, Dog; settings: 120 time of incubation
# Experimental: as §1
# DCOL1 (S+L−) = assay: in vitro killing activity; assay type: cell-based, Dog; settings: 120 time of incubation
# Experimental: as §1
# MP-0094-2 = assay: in vitro killing activity; assay type: cell-based, Dog; settings: 120 time of incubation
# Experimental: as §1
# MP-0094-3 = assay: in vitro killing activity; assay type: cell-based, Dog; settings: 120 time of incubation
# Experimental: as §1
# MP-1044-1 = assay: in vitro killing activity; assay type: cell-based, Dog; settings: 72 time of incubation
# Experimental: as §1
# MP-1092-1 = assay: in vitro killing activity; assay type: cell-based, Dog; settings: 120 time of incubation
# Experimental: as §1
# B16F10 = assay: in vitro killing activity; assay type: cell-based, Mice; settings: 75 time of incubation
# Experimental: as §1
# CT26 = assay: in vitro killing activity; assay type: cell-based, Mice; settings: 96 time of incubation
# Experimental: as §1
# MC38 = assay: in vitro killing activity; assay type: cell-based, Mice; settings: 120 time of incubation
# Experimental: as §1
# L6 = assay: in vitro killing activity; assay type: cell-based, Rat; settings: 120 h incubation
# Experimental: as §1
# PC12 = assay: in vitro killing activity; assay type: cell-based, Rat; settings: 120 time of incubation
# Experimental: as §1
# multiple cell lines = assay: in vitro killing activity, multiple tumor cell lines; assay type: cell-based, human, mice, rat, dog
# Experimental: as §1
# Pgp = settings: cited from earlier work
structure (smiles),measurement,setting,value
CC[C@@]1(O)C(=O)OCc2c1cc1n(c2=O)Cc2c-1nc1ccc(N)c3c1c2CCS3 [CPT-1],IC50,"A-431; Homo sapiens, A-431",2.97 nM
same,IC50,"BT474; Homo sapiens, BT-474",6.22 nM
same,IC50,"BxPC-3; Homo sapiens, BXPC-3",0.213 nM
same,IC50,"HCC1954; Homo sapiens, HCC1954",1.31 nM
same,IC50,"HS-746T; Homo sapiens, Hs746T",0.523 nM
same,IC50,"Hela; Homo sapiens, HeLa",1.03 nM
same,IC50,"HuH-7; Homo sapiens, Huh-7",0.742 nM
same,IC50,"LOVO; Homo sapiens, LoVo",1.52 nM
same,IC50,"NCI-H1781; Homo sapiens, NCI-H1781",0.297 nM
same,IC50,"NCI-H1975; Homo sapiens, NCI-H1975",1.71 nM
same,IC50,"NCI-H2030; Homo sapiens, NCI-H2030",1.1 nM
same,IC50,"NCI-H226; Homo sapiens, NCI-H226",2.37 nM
same,IC50,"NCI-H69; Homo sapiens, NCI-H69",0.299 nM
same,IC50,"NCI-N87; Homo sapiens, NCI-N87",1.2 nM
same,IC50,OVKATE; Homo sapiens,2.24 nM
same,IC50,"PC-3; Homo sapiens, PC-3",0.859 nM
same,IC50,"Panc 02.03; Homo sapiens, Panc 02.03",0.266 nM
same,IC50,"SKOV-3; Homo sapiens, SK-OV-3",1.8 nM
same,IC50,SW156; Homo sapiens,0.373 nM
same,IC50,"SW620; Homo sapiens, SW-620",0.75 nM
same,IC50,"U-2-OS; Homo sapiens, U2OS",2.65 nM
same,IC50,CMT-U27; Canis lupus familiaris,0.937 nM
same,IC50,"D17; Canis lupus familiaris, D17",0.841 nM
same,IC50,DCOL1 (S+L−); Canis lupus familiaris,1.33 nM
same,IC50,MP-0094-2; Canis lupus familiaris,2.69 nM
same,IC50,MP-0094-3; Canis lupus familiaris,3.92 nM
same,IC50,MP-1044-1; Canis lupus familiaris,8.63 nM
same,IC50,MP-1092-1; Canis lupus familiaris,0.988 nM
same,IC50,"B16F10; Mus musculus, B16-F10",3.29 nM
same,IC50,"CT26; Mus musculus, CT26",3.84 nM
same,IC50,"MC38; Mus musculus, MC-38",6.72 nM
same,IC50,"L6; Rattus norvegicus, L6",3.69 nM
same,IC50,"PC12; Rattus norvegicus, PC-12",1.67 nM
same,in vitro killing activity,multiple cell lines,good in vitro killing activity
same,tumor cell inhibition effect compared with Dxd and SN38,multiple cell lines,higher tumor cell inhibition effect than Dxd and SN38
"CC[C@@]1(O)C(=O)OCc2c1cc1n(c2=O)Cc2c-1nc1cc(F)c(C)c3c1c2[C@@H](NC(=O)CO)CC3 [Dxd, reference compound]",IC50,A-431,28.1 nM
same,IC50,BT474,10.9 nM
same,IC50,BxPC-3,1.87 nM
same,IC50,HCC1954,3.31 nM
same,IC50,HS-746T,1.05 nM
same,IC50,Hela,6.69 nM
same,IC50,HuH-7,1.39 nM
same,IC50,LOVO,8.65 nM
same,IC50,NCI-H1781,0.724 nM
same,IC50,NCI-H1975,9.91 nM
same,IC50,NCI-H2030,6.43 nM
same,IC50,NCI-H226,22.9 nM
same,IC50,NCI-H69,0.299 nM
same,IC50,NCI-N87,7.03 nM
same,IC50,OVKATE,12.3 nM
same,IC50,PC-3,6.4 nM
same,IC50,Panc 02.03,3.18 nM
same,IC50,SKOV-3,16.5 nM
same,IC50,SW156,1.84 nM
same,IC50,SW620,3.89 nM
same,IC50,U-2-OS,41.9 nM
same,IC50,CMT-U27,3.37 nM
same,IC50,D17,6.08 nM
same,IC50,DCOL1 (S+L−),9.05 nM
same,IC50,MP-0094-2,9.67 nM
same,IC50,MP-0094-3,22 nM
same,IC50,MP-1044-1,41.7 nM
same,IC50,MP-1092-1,7.13 nM
same,IC50,B16F10,26.2 nM
same,IC50,CT26,94.2 nM
same,IC50,MC38,38.5 nM
same,IC50,L6,13.8 nM
same,IC50,PC12,9.19 nM
same,Pgp substrate,Pgp,Pgp substrates

# Reference: patent US20260315611A1, “LINKER COMPOUNDS AND LIGAND-DRUG CONJUGATES, PREPARATION METHODS AND USES THEREOF” (Biocytogen Pharmaceuticals (Beijing) Co., Ltd., priority 2023, published 2026)
